Reference: patent US11883398B2, “Dipeptidylpeptidase 4 inhibition enhances lymphocyte trafficking, improving both naturally occurring tumor immunity and immunotherapy” (INSTITUT PASTEUR, priority 2015, dated 2024)

Columns and labels:
[1] = test system: M04 (B16F10 transfected with OVA); assay: B16-OVA (M04) tumor growth with OT1 adoptive T cell transfer; format: in vivo, mouse
Description: B16F10 and M04 (Ovalbumin-expressing B16F10 cells, gift from C. Reis e Sousa) tumor cells were cultured in DMEM (Gibco) supplemented with 10% FCS (PAA), 0.1 mM non-essential amino acids, 1 mM sodium pyruvate, 10 mM Hepes, 70 μM beta-mercaptoethanol and 23 μg/ml gentamycin (all from Gibco). CT26 colon carcinoma cells were cultured in RPMI (Gibco) supplemented as described for DMEM. Cells for injections were passaged 1-2 times after thawing, before use. WT and genetically modified mice were subcutaneously injected with 2×10^5 B16 or 5×10^5 CT26 cells in the shaved right flank. When indicated, mice received an intra-tumoral injection of 1 μg of recombinant mCXCL10, 5 μg CpG-A in DOPTAP or vehicle control. […] Tumor height and width were measured with a caliper and tumor volume was calculated (Elliptical volume=width^2×height×0.523). […] 15 days after tumor cell injection, lungs were dissected, placed in Fekete's solution and metastatic foci were counted. […]

mCXCL10 = assay: Chemokine quantification in B16F10 tumor homogenates (ELISA/Luminex); format: in vivo, mouse
Description: Soluble extracts were collected after centrifugation of tumor homogenates.
For detection of mCXCL10(1-77), MAXISORP PLATES® (Nunc) were coated with 4 μg/ml of α-mCXCL10 capturing antibody (MAB466, R&D) in PBS and incubated over night at 4° C. Plates were washed twice with 300 μL of PBS. […] Tumor and plasma samples were diluted in BSA 1% and incubated for 2h, at room temperature.

N[C@@H](CC(=O)N1CCn2c(nnc2C(F)(F)F)C1)Cc1cc(F)c(F)cc1F [sitagliptin]
reduction in tumor size ([1]; B16-OVA tumors, day 15): ~50% | B16-OVA tumor growth ([1]; monotherapies vs control): significant delay | tumor associated mCXCL10 concentration (mCXCL10; B16F10 tumors, sitagliptin-treated vs control mice): elevated concentrations | full-length mCXCL10(1-77) among total mCXCL10 in tumor (mCXCL10; after intra-tumoral CpG-A, sitagliptin vs control): protected the full-length form of the molecule | intra-tumoral expression of mCCL2 and mCCL22 after CpG-A (mCXCL10; control vs sitagliptin treated animals): no significant differences
